Experimental data from PubChem BioAssay AID330 (DTP/NCI, 2004).
“And” between values parts separate entries of the source, which are not always exact repeats. Equal entries are not always repeated. Inconclusive results and toxic doses are left out. How the source made its calls: active means survival T/C of 150% or more; inactive means T/C below 125% in these data.

Tested on: P388 leukemia ip, CD2F1 mice, survival T/C
Assay: NCI In Vivo Anticancer Drug Screen. Data for tumor model P388 Leukemia (intraperitoneal) in CD2F1 (CDF1) mice
Settings: endpoint: median survival time, higher = longer survival
Method in brief: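 Mice carrying the transplanted tumor received test compound or vehicle. Survival was recorded in each group, and the value is the treated-group measurement divided by that of the vehicle-treated control group.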

[1] = dose: 1.56 mg/kg/injection, schedule: Q01DX005 (ip), vehicle: Klucel (hydroxypropylcellulose) (HPC)
[2] = dose: 3.12 mg/kg/injection, schedule: Q01DX005 (ip), vehicle: Klucel (hydroxypropylcellulose) (HPC)
[3] = dose: 6.25 mg/kg/injection, schedule: Q01DX005 (ip), vehicle: Klucel (hydroxypropylcellulose) (HPC)
[4] = dose: 50.0 mg/kg/injection, schedule: Q01DX005 (ip), vehicle: saline with Tween-80
[5] = dose: 100.0 mg/kg/injection, schedule: Q01DX005 (ip), vehicle: saline with Tween-80
[6] = dose: 200.0 mg/kg/injection, schedule: Q01DX005 (ip), vehicle: saline with Tween-80
[7] = dose: 100.0 mg/kg/injection, schedule: Q01DX009 (ip), vehicle: saline with Tween-80

Measured: T/C

COc1cc(C2c3cc4c(cc3OC3(O)C=C(C)OC(=O)C23)OCO4)cc(OC)c1OC (stereo unspecified)
inactive: dose: 60.0 mg/kg/injection, schedule: Q01DX005 (ip), vehicle: Klucel (hydroxypropylcellulose) (HPC) 94 % of control | dose: 120.0 mg/kg/injection, schedule: Q01DX005 (ip), vehicle: Klucel (hydroxypropylcellulose) (HPC) 94 % of control | dose: 240.0 mg/kg/injection, schedule: Q01DX005 (ip), vehicle: Klucel (hydroxypropylcellulose) (HPC) 110 % of control

OCC1OC(n2c(Cl)nc3ccccc32)C(O)C1O (stereo unspecified)
inactive: dose: 60.0 mg/kg/injection, schedule: Q01DX005 (ip), vehicle: saline 100 % of control | dose: 120.0 mg/kg/injection, schedule: Q01DX005 (ip), vehicle: saline 103 % of control | dose: 240.0 mg/kg/injection, schedule: Q01DX005 (ip), vehicle: saline 98 % of control

C[CH2][Sn]([CH2]C)([S]c1nc(O)cc(=O)[nH]1)[S]c1nc(O)cc(=O)[nH]1
inactive: [1] 107 % of control | [2] 113 % of control and 119 % of control | [3] 118 % of control

CN1C=CC(C(O)(c2ccccc2)c2ccccc2)CC1 (stereo unspecified)
inactive: [4] 99 % of control | [5] 97 % of control | [6] 100 % of control

O=C(NCCCl)Oc1cccn(C(=O)NCCCl)c1=O
inactive: dose: 12.5 mg/kg/injection, schedule: Q01DX009 (sc), vehicle: saline with Tween-80 106 % of control and 111 % of control | dose: 25.0 mg/kg/injection, schedule: Q01DX009 (ip), vehicle: saline 111 % of control and 113 % of control | dose: 25.0 mg/kg/injection, schedule: Q01DX009 (sc), vehicle: saline with Tween-80 100 % of control and 115 % of control | dose: 50.0 mg/kg/injection, schedule: Q01DX009 (ip), vehicle: saline 112 % of control and 118 % of control | dose: 50.0 mg/kg/injection, schedule: Q01DX009 (sc), vehicle: saline with Tween-80 102 % of control and 115 % of control | dose: 100.0 mg/kg/injection, schedule: Q01DX009 (sc), vehicle: saline with Tween-80 109 % of control and 115 % of control | dose: 200.0 mg/kg/injection, schedule: Q01DX009 (sc), vehicle: saline with Tween-80 111 % of control and 123 % of control | dose: 400.0 mg/kg/injection, schedule: Q01DX009 (sc), vehicle: saline with Tween-80 95 % of control

CC(C)C1=CC23CCC4C(C)(C(=O)O)CCCC4(C)C2CC1C(C(=O)O)C3C(=O)O (stereo unspecified)
inactive: dose: 50.0 mg/kg/injection, schedule: Q01DX005 (ip), vehicle: saline 97 % of control | dose: 100.0 mg/kg/injection, schedule: Q01DX005 (ip), vehicle: saline 96 % of control | dose: 200.0 mg/kg/injection, schedule: Q01DX005 (ip), vehicle: saline 98 % of control

COc1cc(OC)c(/C=N/Nc2cc(C)nc3cc4c(cc23)OCO4)c(OC)c1
inactive: [1] 106 % of control | [2] 97 % of control | [3] 102 % of control and 91 % of control | dose: 12.5 mg/kg/injection, schedule: Q01DX005 (ip), vehicle: Klucel (hydroxypropylcellulose) (HPC) 100 % of control and 87 % of control | dose: 25.0 mg/kg/injection, schedule: Q01DX005 (ip), vehicle: Klucel (hydroxypropylcellulose) (HPC) 103 % of control

O=C(O)C(O)(C1CCCCC1)C1CCC(C2CCCCC2)CC1C1CCCCC1 (stereo unspecified)
inactive: [4] 98 % of control | [5] 102 % of control | [6] 100 % of control

CC(=O)[C@H]1CC[C@H]2[C@@H]3CCC4=CC(=O)C=C[C@]4(C)[C@H]3C(=O)C[C@]12C
inactive: [7] 100 % of control | dose: 200.0 mg/kg/injection, schedule: Q01DX009 (ip), vehicle: saline with Tween-80 100 % of control | dose: 400.0 mg/kg/injection, schedule: Q01DX009 (ip), vehicle: saline with Tween-80 100 % of control

CC1(C)CC(=O)C(C(c2cccc(O)c2O)C2C(=O)CC(C)(C)CC2=O)C(=O)C1
inactive: dose: 12.5 mg/kg/injection, schedule: Q01DX009 (ip), vehicle: saline with Tween-80 100 % of control and 96 % of control | dose: 25.0 mg/kg/injection, schedule: Q01DX009 (ip), vehicle: saline with Tween-80 92 % of control | dose: 50.0 mg/kg/injection, schedule: Q01DX009 (ip), vehicle: saline with Tween-80 93 % of control and 96 % of control | [7] 92 % of control and 94 % of control

CC([Se])=Nc1ccc(Br)cc1
inactive: dose: 12.5 mg/kg/injection, schedule: Q04DX003 (ip), vehicle: Klucel (hydroxypropylcellulose) (HPC) 100 % of control | dose: 25.0 mg/kg/injection, schedule: Q04DX003 (ip), vehicle: Klucel (hydroxypropylcellulose) (HPC) 100 % of control

COc1ccc(C2OC(=O)CN2C(=O)c2ccccc2)cc1 (stereo unspecified)
inactive: [4] 107 % of control | [5] 95 % of control | [6] 90 % of control

O=C1C2C3CC(c4ccccc43)C2N1S(=O)(=O)Cl (stereo unspecified)
inactive: dose: 60.0 mg/kg/injection, schedule: Q01DX005 (ip), vehicle: saline with Tween-80 107 % of control | dose: 120.0 mg/kg/injection, schedule: Q01DX005 (ip), vehicle: saline with Tween-80 106 % of control | dose: 240.0 mg/kg/injection, schedule: Q01DX005 (ip), vehicle: saline with Tween-80 114 % of control
